Results as given in article doi:10.1101/2024.09.04.611205v1 (biorxiv, 2024).

Columns and labels:
cyclooxygenase 1 (COX-1) = cyclooxygenase 1 (COX-1) (Homo sapiens, UniProt P23219); assay: fluorimetric ADHP/resorufin assay; assay type: biochemical; settings: read-out: % inhibition at 20 μM
cyclooxygenase 2 (COX-2) = target: T1, cyclooxygenase 2 (COX-2) (Homo sapiens, UniProt P35354); assay: fluorimetric ADHP/resorufin assay; assay type: biochemical; settings: read-out: % inhibition at 20 μM
T1 sequence (P35354 18-604): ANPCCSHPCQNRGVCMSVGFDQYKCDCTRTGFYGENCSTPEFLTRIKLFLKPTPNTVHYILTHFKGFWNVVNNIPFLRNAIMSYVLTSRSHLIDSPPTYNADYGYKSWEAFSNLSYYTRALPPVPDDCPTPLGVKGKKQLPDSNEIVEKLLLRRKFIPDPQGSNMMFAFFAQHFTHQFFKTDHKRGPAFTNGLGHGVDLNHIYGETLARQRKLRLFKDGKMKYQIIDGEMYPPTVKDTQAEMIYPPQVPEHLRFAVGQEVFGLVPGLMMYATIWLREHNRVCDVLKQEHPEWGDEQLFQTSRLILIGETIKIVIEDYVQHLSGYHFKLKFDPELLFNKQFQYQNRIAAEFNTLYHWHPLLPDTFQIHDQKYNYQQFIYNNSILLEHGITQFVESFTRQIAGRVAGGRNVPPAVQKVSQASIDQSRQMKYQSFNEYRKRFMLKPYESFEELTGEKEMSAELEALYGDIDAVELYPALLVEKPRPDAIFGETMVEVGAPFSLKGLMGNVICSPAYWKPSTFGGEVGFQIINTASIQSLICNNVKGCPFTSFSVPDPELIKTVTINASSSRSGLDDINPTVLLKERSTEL

cyclooxygenase 1 (COX-1), sequence (P23219 24-599): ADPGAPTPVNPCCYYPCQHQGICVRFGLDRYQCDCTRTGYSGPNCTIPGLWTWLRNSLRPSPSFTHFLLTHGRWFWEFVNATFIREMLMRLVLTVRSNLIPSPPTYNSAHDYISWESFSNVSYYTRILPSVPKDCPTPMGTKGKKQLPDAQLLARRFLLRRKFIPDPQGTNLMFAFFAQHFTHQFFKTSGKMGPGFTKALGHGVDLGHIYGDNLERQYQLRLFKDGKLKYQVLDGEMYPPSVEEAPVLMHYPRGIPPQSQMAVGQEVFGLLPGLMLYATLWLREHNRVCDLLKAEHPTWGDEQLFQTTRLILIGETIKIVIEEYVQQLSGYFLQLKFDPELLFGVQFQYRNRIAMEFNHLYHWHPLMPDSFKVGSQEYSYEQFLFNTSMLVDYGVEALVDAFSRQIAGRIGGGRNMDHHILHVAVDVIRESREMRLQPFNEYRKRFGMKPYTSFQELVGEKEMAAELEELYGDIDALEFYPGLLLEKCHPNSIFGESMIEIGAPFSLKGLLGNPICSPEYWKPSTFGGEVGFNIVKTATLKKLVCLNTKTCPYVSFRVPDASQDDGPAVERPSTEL

- inhibition at 20 µM (cyclooxygenase 1 (COX-1)): 61%
- inhibition at 20 µM (cyclooxygenase 2 (COX-2)): 13%
Structure (SMILES): Cc1cccc(-c2n[nH]cc2-c2ccc3ncccc3n2)n1 [RepSox]
